Where two headings read alike, the source gives them in different places.

The target in assay [1] is human JAK1 (a.a. 837-1142) (Homo sapiens, UniProt P23458). Kind of assay: In vitro JAK kinase assay (HTRF, phosphorylation of biotinylated peptide), JAK1. In kind it is biochemical. Conditions: 1 mM ATP. Summed up: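 Phosphorylation of a biotinylated peptide was run at room temperature for 1 hour using the N-terminally His-tagged JAK1 kinase domain (837-1142) from insect cells. After an EDTA stop, Eu-Py20 and SA-APC gave an HTRF read; values are binned potency ranges.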
For orientation: In TR-FRET formats the signal depends on donor and acceptor labels being close together.

In another assay the target is T1, JAK2 (a.a. 828-1132) (Homo sapiens, UniProt O60674).
T1 construct: JAK2 (a.a. 828-1132); His tag (N)
The assay can be described thus: In vitro JAK kinase assay (HTRF, phosphorylation of biotinylated peptide), JAK2. Conditions: 1 mM ATP. It is filed as biochemical. Summed up:
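HTRF detection (Eu-Py20, SA-APC, 40 min) of biotinylated-peptide phosphorylation, following a 1 hour room-temperature reaction quenched with 45 mM EDTA. Enzymes: insect-cell-expressed N-terminal His-tagged JAK1 (837-1142) and JAK2 (828-1132) catalytic domains. Activities reported in ranged categories.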

Sequence of human JAK1 (a.a. 837-1142) (P23458 849-1154): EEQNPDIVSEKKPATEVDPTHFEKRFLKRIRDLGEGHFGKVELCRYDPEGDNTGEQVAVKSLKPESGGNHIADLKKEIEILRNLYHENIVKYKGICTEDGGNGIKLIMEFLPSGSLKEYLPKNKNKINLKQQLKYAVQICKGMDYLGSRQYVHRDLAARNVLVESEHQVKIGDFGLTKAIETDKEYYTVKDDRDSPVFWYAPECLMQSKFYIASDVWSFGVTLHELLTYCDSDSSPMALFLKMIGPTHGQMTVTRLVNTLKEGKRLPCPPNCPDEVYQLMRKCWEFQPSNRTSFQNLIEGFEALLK
T1 sequence (O60674 828-1132): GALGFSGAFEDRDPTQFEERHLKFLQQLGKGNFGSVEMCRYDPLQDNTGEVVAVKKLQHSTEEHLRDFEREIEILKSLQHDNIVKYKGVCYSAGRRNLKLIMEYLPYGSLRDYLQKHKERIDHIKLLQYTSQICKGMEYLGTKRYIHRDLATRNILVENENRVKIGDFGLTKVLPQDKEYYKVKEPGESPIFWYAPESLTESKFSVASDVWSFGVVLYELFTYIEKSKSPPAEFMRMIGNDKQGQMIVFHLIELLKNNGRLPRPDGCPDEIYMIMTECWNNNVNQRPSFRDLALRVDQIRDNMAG

What is called IC50 is the point on the concentration scale where inhibition reaches its midpoint. Turning to `CN(C)Cc1cc(F)cc(C(=O)N2CCN([C@H]3C[C@](CC#N)(n4cc(-c5ncnc6[nH]ccc56)cn4)C3)CC2)c1` [Example 33, {trans-3-(4-{3-[(dimethylamino)methyl]-5-fluorobenzoyl}piperazin-1-yl)-1-[4-(7H-pyrrolo[2,3-d]pyrimidin-4-yl)-1H-pyrazol-1-yl]cyclobutyl}acetonitrile], the IC50 is less than 0.01 µM in assay [1] (Table B, read-out: JAK1 IC50) and less than 0.01 µM on JAK2 (a.a. 828-1132) (Table B, read-out: JAK2 IC50).
`CN(C)Cc1cc(F)cc(CN2CCN([C@H]3C[C@](CC#N)(n4cc(-c5ncnc6[nH]ccc56)cn4)C3)CC2)c1` [Example 34, {trans-3-(4-{3-[(dimethylamino)methyl]-5-fluorobenzyl}piperazin-1-yl)-1-[4-(7H-pyrrolo[2,3-d]pyrimidin-4-yl)-1H-pyrazol-1-yl]cyclobutyl}acetonitrile]: the IC50 in assay [1] (Table B, read-out: JAK1 IC50) was less than 0.01 µM; on JAK2 (a.a. 828-1132) (Table B, read-out: JAK2 IC50), 0.01 to 0.025 µM.
In the case of `N#CC[C@]1(n2cc(-c3ncnc4[nH]ccc34)cn2)C[C@H](N2CCN(S(=O)(=O)C3CC3)CC2)C1` [Example 36, {trans-3-[4-(cyclopropylsulfonyl)piperazin-1-yl]-1-[4-(7H-pyrrolo[2,3-d]pyrimidin-4-yl)-1H-pyrazol-1-yl]cyclobutyl}acetonitrile], the IC50 in assay [1] (Table B, read-out: JAK1 IC50) was less than 0.01 µM; at JAK2 (a.a. 828-1132) (Table B, read-out: JAK2 IC50), less than 0.01 µM.
Consider `CN(C)S(=O)(=O)N1CCN([C@H]2C[C@](CC#N)(n3cc(-c4ncnc5[nH]ccc45)cn3)C2)CC1` [Example 37, 4-{trans-3-(cyanomethyl)-3-[4-(7H-pyrrolo[2,3-d]pyrimidin-4-yl)-1H-pyrazol-1-yl]cyclobutyl}-N,N-dimethylpiperazine-1-sulfonamide], for which the 50% inhibitory concentration (IC50) is less than 0.01 µM in assay [1] (Table B, read-out: JAK1 IC50) and less than 0.01 µM at JAK2 (a.a. 828-1132) (Table B, read-out: JAK2 IC50).
On to `CCN(C)C(=O)N1CCN([C@H]2C[C@](CC#N)(n3cc(-c4ncnc5[nH]ccc45)cn3)C2)CC1` [Example 38, 4-{trans-3-(cyanomethyl)-3-[4-(7H-pyrrolo[2,3-d]pyrimidin-4-yl)-1H-pyrazol-1-yl]cyclobutyl}-N-ethyl-N-methylpiperazine-1-carboxamide], for which the IC50 is less than 0.01 µM in assay [1] (Table B, read-out: JAK1 IC50) and 0.025 to 0.1 µM on JAK2 (a.a. 828-1132) (Table B, read-out: JAK2 IC50).
Take `CN(C)Cc1cc(C(=O)N2CCN([C@H]3C[C@](CC#N)(n4cc(-c5ncnc6[nH]ccc56)cn4)C3)CC2)cc(C(F)(F)F)c1` [Example 39, {trans-3-{4-[3-[(dimethylamino)methyl]-5-(trifluoromethyl)benzoyl]piperazin-1-yl}-1-[4-(7H-pyrrolo[2,3-d]pyrimidin-4-yl)-1H-pyrazol-1-yl]cyclobutyl}acetonitrile]: the IC50 in assay [1] (Table B, read-out: JAK1 IC50) was less than 0.01 µM; at JAK2 (a.a. 828-1132) (Table B, read-out: JAK2 IC50), 0.025 to 0.1 µM.
On to `CN(C)Cc1cc(C#N)cc(C(=O)N2CCN([C@H]3C[C@@](CC#N)(n4cc(-c5ncnc6[nH]ccc56)cn4)C3)CC2)c1` [Example 42, 3-[(4-{cis-3-(cyanomethyl)-3-[4-(7H-pyrrolo[2,3-d]pyrimidin-4-yl)-1H-pyrazol-1-yl]cyclobutyl}piperazin-1-yl)carbonyl]-5-[(dimethylamino)methyl]benzonitrile], for which the IC50 in assay [1] (Table F) is less than 0.01 µM; against JAK2 (a.a. 828-1132) (Table F) it was more than 0.1 µM.
As for `CN(C)Cc1cc(C#N)cc(CN2CCN([C@H]3C[C@@](CC#N)(n4cc(-c5ncnc6[nH]ccc56)cn4)C3)CC2)c1` [Example 44, 3-[(4-{cis-3-(cyanomethyl)-3-[4-(7H-pyrrolo[2,3-d]pyrimidin-4-yl)-1H-pyrazol-1-yl]cyclobutyl}piperazin-1-yl)methyl]-5-[(dimethylamino)methyl]benzonitrile], the IC50 in assay [1] (Table F) was 0.01 to 0.025 µM; against JAK2 (a.a. 828-1132) (Table F), more than 0.1 µM.
In the case of `CN(C)Cc1cc(CN2CCN([C@H]3C[C@](CC#N)(n4cc(-c5ncnc6[nH]ccc56)cn4)C3)CC2)cc(C(F)(F)F)c1` [Example 45, {trans-3-{4-[3-[(dimethylamino)methyl]-5-(trifluoromethyl)benzyl]piperazin-1-yl}-1-[4-(7H-pyrrolo[2,3-d]pyrimidin-4-yl)-1H-pyrazol-1-yl]cyclobutyl}acetonitrile], the IC50 (in assay [1] (Table F); against JAK2 (a.a. 828-1132) (Table F)) was more than 0.1 µM in each case.
Consider `CN(C)Cc1cc(CN2CCN([C@H]3C[C@@](CC#N)(n4cc(-c5ncnc6[nH]ccc56)cn4)C3)CC2)cc(C(F)(F)F)c1` [Example 46, {cis-3-{4-[3-[(dimethylamino)methyl]-5-(trifluoromethyl)benzyl]piperazin-1-yl}-1-[4-(7H-pyrrolo[2,3-d]pyrimidin-4-yl)-1H-pyrazol-1-yl]cyclobutyl}acetonitrile], for which the IC50 in assay [1] (Table F) was 0.025 to 0.1 µM; against JAK2 (a.a. 828-1132) (Table F) it was more than 0.1 µM.
With `CCNCc1cc(C(=O)N2CCN([C@H]3C[C@](CC#N)(n4cc(-c5ncnc6[nH]ccc56)cn4)C3)CC2)nc(C(F)(F)F)n1` [Example 47, {trans-3-(4-{[6-[(Ethylamino)methyl]-2-(trifluoromethyl)pyrimidin-4-yl]carbonyl}piperazin-1-yl)-1-[4-(7H-pyrrolo[2,3-d]pyrimidin-4-yl)-1H-pyrazol-1-yl]cyclobutyl}acetonitrile], the IC50 in assay [1] (Table F) was less than 0.01 µM; at JAK2 (a.a. 828-1132) (Table F), 0.025 to 0.1 µM.
For `N#CC[C@]1(n2cc(-c3ncnc4[nH]ccc34)cn2)C[C@H](N2CCN(C(=O)c3cc(C(=O)O)nc(C(F)(F)F)n3)CC2)C1` [Example 48, 6-[(4-{trans-3-(cyanomethyl)-3-[4-(7H-pyrrolo[2,3-d]pyrimidin-4-yl)-1H-pyrazol-1-yl]cyclobutyl}piperazin-1-yl)carbonyl]-2-(trifluoromethyl)pyrimidine-4-carboxylic acid] the same measures were 0.01 to 0.025 µM and more than 0.1 µM.
For `N#CC[C@]1(n2cc(-c3ncnc4[nH]ccc34)cn2)C[C@H](N2CCN(C(=O)c3cc(CN4CCC4)nc(C(F)(F)F)n3)CC2)C1` [Example 49, {trans-3-(4-{[6-(azetidin-1-ylmethyl)-2-(trifluoromethyl)pyrimidin-4-yl]carbonyl}piperazin-1-yl)-1-[4-(7H-pyrrolo[2,3-d]pyrimidin-4-yl)-1H-pyrazol-1-yl]cyclobutyl}acetonitrile], the figures for the IC50 (in assay [1] (Table F); at JAK2 (a.a. 828-1132) (Table F)) were less than 0.01 µM and 0.025 to 0.1 µM, respectively.
As for `CNCc1cc(C(=O)N2CCN([C@H]3C[C@](CC#N)(n4cc(-c5ncnc6[nH]ccc56)cn4)C3)CC2)nc(C(F)(F)F)n1` [Example 50, {trans-3-(4-{[6-[(methylamino)methyl]-2-(trifluoromethyl)pyrimidin-4-yl]carbonyl}piperazin-1-yl)-1-[4-(7H-pyrrolo[2,3-d]pyrimidin-4-yl)-1H-pyrazol-1-yl]cyclobutyl}acetonitrile], the IC50 in assay [1] (Table F) is less than 0.01 µM; against JAK2 (a.a. 828-1132) (Table F) it was 0.025 to 0.1 µM.
`N#CC[C@]1(n2cc(-c3ncnc4[nH]ccc34)cn2)C[C@H](N2CCN(C(=O)c3cc(CO)nc(C(F)(F)F)n3)CC2)C1` [Example 51, {trans-3-(4-{[6-(hydroxymethyl)-2-(trifluoromethyl)pyrimidin-4-yl]carbonyl}piperazin-1-yl)-1-[4-(7H-pyrrolo[2,3-d]pyrimidin-4-yl)-1H-pyrazol-1-yl]cyclobutyl}acetonitrile]: the values for the IC50 (in assay [1] (Table F); against JAK2 (a.a. 828-1132) (Table F)) were less than 0.01 µM and 0.025 to 0.1 µM, respectively.
`CN(C)Cc1cc(C(=O)N2CCN([C@H]3C[C@](CC#N)(n4cc(-c5ncnc6[nH]ccc56)cn4)C3)CC2)nc(C(F)(F)F)n1` [Example 52, {trans-3-(4-{[6-[(dimethylamino)methyl]-2-(trifluoromethyl)pyrimidin-4-yl]carbonyl}piperazin-1-yl)-1-[4-(7H-pyrrolo[2,3-d]pyrimidin-4-yl)-1H-pyrazol-1-yl]cyclobutyl}acetonitrile]: the IC50 in assay [1] (Table F) is less than 0.01 µM; at JAK2 (a.a. 828-1132) (Table F), 0.025 to 0.1 µM.
Consider `N#CC[C@]1(n2cc(-c3ncnc4[nH]ccc34)cn2)C[C@H](N2CCN(C(=O)c3cc(CN4CCCC4)nc(C(F)(F)F)n3)CC2)C1` [Example 53, {trans-3-(4-{[6-(pyrrolidin-1-ylmethyl)-2-(trifluoromethyl)pyrimidin-4-yl]carbonyl}piperazin-1-yl)-1-[4-(7H-pyrrolo[2,3-d]pyrimidin-4-yl)-1H-pyrazol-1-yl]cyclobutyl}acetonitrile], for which the values for the half-maximal inhibitory concentration (IC50) (in assay [1] (Table F); against JAK2 (a.a. 828-1132) (Table F)) were less than 0.01 µM and 0.025 to 0.1 µM, respectively.
In the case of `N#CC[C@]1(n2cc(-c3ncnc4[nH]ccc34)cn2)C[C@H](N2CCN(C(=O)c3cc(CN)nc(C(F)(F)F)n3)CC2)C1` [Example 54, {trans-3-(4-{[6-(aminomethyl)-2-(trifluoromethyl)pyrimidin-4-yl]carbonyl}piperazin-1-yl)-1-[4-(7H-pyrrolo[2,3-d]pyrimidin-4-yl)-1H-pyrazol-1-yl]cyclobutyl}acetonitrile], the results for the IC50 (in assay [1] (Table F); at JAK2 (a.a. 828-1132) (Table F)) were less than 0.01 µM and 0.025 to 0.1 µM, respectively.
For the molecule `CC(C)NCc1cc(C(=O)N2CCN([C@H]3C[C@](CC#N)(n4cc(-c5ncnc6[nH]ccc56)cn4)C3)CC2)nc(C(F)(F)F)n1` [Example 55, {trans-3-(4-{[6-[(isopropylamino)methyl]-2-(trifluoromethyl)pyrimidin-4-yl]carbonyl}piperazin-1-yl)-1-[4-(7H-pyrrolo[2,3-d]pyrimidin-4-yl)-1H-pyrazol-1-yl]cyclobutyl}acetonitrile], the IC50 in assay [1] (Table F) is less than 0.01 µM; against JAK2 (a.a. 828-1132) (Table F), 0.025 to 0.1 µM.
`N#CC[C@]1(n2cc(-c3ncnc4[nH]ccc34)cn2)C[C@H](N2CCN(C(=O)c3cc(CNC4CCC4)nc(C(F)(F)F)n3)CC2)C1` [Example 56, {trans-3-(4-{[6-[(cyclobutylamino)methyl]-2-(trifluoromethyl)pyrimidin-4-yl]carbonyl}piperazin-1-yl)-1-[4-(7H-pyrrolo[2,3-d]pyrimidin-4-yl)-1H-pyrazol-1-yl]cyclobutyl}acetonitrile]: the IC50 in assay [1] (Table F) was less than 0.01 µM; against JAK2 (a.a. 828-1132) (Table F) it was 0.025 to 0.1 µM.
